Structures are written as SMILES.

This experiment has as its target T1, human Nav1.7 channels (Homo sapiens, UniProt Q15858).
T1 construct: expressed in transfected cells; host or cells: CHO
In words: FRET assay, human Nav1.7 (EFS on FDSS). The class given is cell-based. The following applies: CHO cells expressing human Nav1.7, read-out: IC50 against Nav1.7. In outline:
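IC50 was derived from normalized 440 nm fluorescence ratios of the EFS-evoked membrane-potential response read on FDSS. Recombinant CHO cells were sequentially dye-loaded with coumarin/oxonol FRET pair at room temperature in pH 7.4 buffer before compound addition.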

T1 sequence (Q15858 whole entry): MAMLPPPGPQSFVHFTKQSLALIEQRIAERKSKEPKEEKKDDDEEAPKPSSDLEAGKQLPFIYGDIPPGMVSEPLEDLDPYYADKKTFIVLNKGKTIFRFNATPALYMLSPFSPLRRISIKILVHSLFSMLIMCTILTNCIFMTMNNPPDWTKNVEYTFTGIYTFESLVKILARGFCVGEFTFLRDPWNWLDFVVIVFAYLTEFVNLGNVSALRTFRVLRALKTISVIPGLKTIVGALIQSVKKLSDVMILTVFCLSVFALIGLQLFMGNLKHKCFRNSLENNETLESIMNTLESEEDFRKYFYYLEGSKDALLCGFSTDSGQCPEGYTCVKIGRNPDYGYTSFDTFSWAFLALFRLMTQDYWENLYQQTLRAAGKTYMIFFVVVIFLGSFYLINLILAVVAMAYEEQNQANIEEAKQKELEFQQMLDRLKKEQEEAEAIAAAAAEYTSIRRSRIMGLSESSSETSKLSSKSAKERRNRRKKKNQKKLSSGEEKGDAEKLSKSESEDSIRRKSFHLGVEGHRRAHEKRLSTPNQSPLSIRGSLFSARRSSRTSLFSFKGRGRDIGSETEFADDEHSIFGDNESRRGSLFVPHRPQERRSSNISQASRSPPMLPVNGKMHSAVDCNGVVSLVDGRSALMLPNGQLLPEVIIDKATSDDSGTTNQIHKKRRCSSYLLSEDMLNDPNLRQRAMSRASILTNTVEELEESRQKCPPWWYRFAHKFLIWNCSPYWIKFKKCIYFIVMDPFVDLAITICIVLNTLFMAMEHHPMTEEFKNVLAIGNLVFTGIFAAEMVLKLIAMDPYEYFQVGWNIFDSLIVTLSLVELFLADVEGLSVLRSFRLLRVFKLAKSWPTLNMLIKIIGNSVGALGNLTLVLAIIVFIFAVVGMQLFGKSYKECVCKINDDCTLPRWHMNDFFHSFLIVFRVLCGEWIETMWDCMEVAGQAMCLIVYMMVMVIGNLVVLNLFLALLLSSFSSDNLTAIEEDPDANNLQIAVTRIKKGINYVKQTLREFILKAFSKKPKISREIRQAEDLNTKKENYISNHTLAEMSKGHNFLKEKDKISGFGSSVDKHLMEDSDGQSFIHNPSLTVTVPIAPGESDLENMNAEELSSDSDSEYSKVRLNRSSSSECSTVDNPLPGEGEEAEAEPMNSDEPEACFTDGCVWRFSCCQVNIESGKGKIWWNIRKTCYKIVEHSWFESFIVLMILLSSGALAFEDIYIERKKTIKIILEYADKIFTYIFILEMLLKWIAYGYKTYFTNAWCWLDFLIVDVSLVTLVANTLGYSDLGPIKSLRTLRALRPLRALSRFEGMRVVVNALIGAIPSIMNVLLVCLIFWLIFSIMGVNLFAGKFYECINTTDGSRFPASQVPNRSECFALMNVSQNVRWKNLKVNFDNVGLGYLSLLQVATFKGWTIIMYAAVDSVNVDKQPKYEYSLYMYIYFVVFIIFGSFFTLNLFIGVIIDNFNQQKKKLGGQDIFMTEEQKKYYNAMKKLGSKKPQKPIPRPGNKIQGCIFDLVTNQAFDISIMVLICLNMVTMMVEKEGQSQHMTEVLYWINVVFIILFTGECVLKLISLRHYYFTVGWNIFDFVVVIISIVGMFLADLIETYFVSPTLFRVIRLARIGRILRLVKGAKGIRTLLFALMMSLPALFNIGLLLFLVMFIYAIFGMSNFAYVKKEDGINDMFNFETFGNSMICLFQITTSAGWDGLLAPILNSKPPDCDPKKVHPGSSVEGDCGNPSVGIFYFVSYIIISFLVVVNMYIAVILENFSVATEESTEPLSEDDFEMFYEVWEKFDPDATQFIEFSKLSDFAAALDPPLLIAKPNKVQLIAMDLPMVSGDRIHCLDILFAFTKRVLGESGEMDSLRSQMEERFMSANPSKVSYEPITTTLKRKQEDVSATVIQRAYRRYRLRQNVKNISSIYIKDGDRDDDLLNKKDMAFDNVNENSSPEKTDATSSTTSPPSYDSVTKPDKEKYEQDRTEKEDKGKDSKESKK

With `Cc1cc(C(=O)NC(C)c2cnc(OCC(F)F)c(Cl)c2)cc(NC(=O)C2CC2)n1` (single isomer, unassigned) [Example 1063, N-(1-(5-chloro-6-(2,2-difluoroethoxy)pyridin-3-yl)ethyl)-2-(cyclopropanecarboxamido)-6-methylisonicotinamide], the IC50 was less than 1 µM.
The same measure for `Cc1cc(C(=O)NC(C)c2ccc(OCC(C)(F)F)nc2)cc(NC(=O)C2CC2)n1` (single isomer, unassigned) [Example 1064]: less than 1 µM; for `Cc1cc(C(=O)NC(C)c2ccc(OCC(F)F)c(C)c2)nc(NC(=O)C2CC2)n1` (single isomer, unassigned) [Example 1075, 2-(cyclopropanecarboxamido)-N-(1-(4-(2,2-difluoroethoxy)-3-methylphenyl)ethyl)-6-methylpyrimidine-4-carboxamide]: less than 1 µM.
For the compound `CC(=O)Nc1cc(C(=O)NC(C)c2cc(C(F)(F)F)ccc2F)ccn1` (single isomer, unassigned) [Example 1096, 2-acetamido-N-(1-(2-fluoro-5-(trifluoromethyl)phenyl)ethyl)isonicotinamide], the IC50 is less than 1 µM.
Regarding `CC(=O)Nc1cc(C(=O)NC(C)c2ccc(OCC(F)F)c(Cl)c2)cc(C)n1` (single isomer, unassigned) [Example 1100, 2-acetamido-N-(1-(3-chloro-4-(2,2-difluoroethoxy)phenyl)ethyl)-6-methylisonicotinamide], the IC50 is less than 1 µM.
Regarding `Cc1cc(C(=O)NC(C)c2ccc(OCC(F)F)c(Cl)c2)cc(NC(=O)C(C)C)n1` (single isomer, unassigned) [Example 1101, N-(1-(3-chloro-4-(2,2-difluoroethoxy)phenyl)ethl)-2-isobutyramido-6-methylisonicotinamide], the IC50 was less than 1 µM.
As to `Cc1cc(C(=O)NC(C)c2ccc(OCC(F)F)cc2C)cc(NC(=O)C(C)C)n1` (single isomer, unassigned) [Example 1104, N-(1-(4-(2,2-difluoroethoxy)-2-methylphenyl)ethyl)-2-isobutyramido-6-methylisonicotinamide], the IC50 is less than 1 µM.
Take `CCC(=O)Nc1cc(C(=O)NC(C)c2ccc(OCC(F)F)cc2Cl)ccn1` (single isomer, unassigned) [Example 1116, N-(1-(2-chloro-4-(2,2-difluoroethoxy)phenyl)ethyl)-2-propionamidoisonicotinamide]: the IC50 is less than 1 µM.
On to `COc1nc(OCC(F)F)ccc1C(C)NC(=O)c1ccnc(NC(C)=O)c1` (single isomer, unassigned) [Example 1160, 2-acetamido-N-(1-(6-(2,2-difluoroethoxy)-2-methoxypyridin-3-yl)ethyl)isonicotinamide], for which the IC50 is less than 1 µM.
The same measure for `CCC(=O)Nc1cc(C(=O)NC(C)c2ccc(OCC(F)F)nc2OC)ccn1` (single isomer, unassigned) [Example 1161, N-(1-(6-(2,2-difluoroethoxy)-2-methoxypyridin-3-yl)ethyl)-2-propionamidoisonicotinamide]: less than 1 µM; for `COc1nc(OCC(F)F)ccc1C(C)NC(=O)c1ccnc(NC(=O)C2CC2)c1` (single isomer, unassigned) [Example 1162, 2-(cyclopropanecarboxamido)-N-(1-(6-(2,2-difluoroethoxy)-2-methoxypyridin-3-yl)ethyl)isonicotinamide]: less than 1 µM.
To `COc1nc(OCC(F)F)ccc1C(C)NC(=O)c1ccnc(NC(=O)C(C)C)c1` (single isomer, unassigned) [Example 1163, N-(1-(6-(2,2-difluoroethoxy)-2-methoxypyridin-3-yl)ethyl)-2-isobutyramidoisonicotinamide] belongs less than 1 µM.
To `COc1nc(OCC(F)F)ccc1C(C)NC(=O)c1cc(C)nc(NC(=O)C(C)C)c1` (single isomer, unassigned) [Example 1166, N-(1-(6-(2,2-difluoroethoxy)-2-methoxypyridin-3-yl)ethyl)-2-isobutyramido-6-methylisonicotinamide] belongs less than 1 µM.
For `CCC(=O)Nc1cc(C(=O)NC(C)c2ccc(OCC(F)(F)C(F)(F)F)nc2)ccn1` (single isomer, unassigned) [Example 1169, N-(1-(6-(2,2,3,3,3-pentafluoropropoxy)pyridin-3-yl)ethyl)-2-propionamidoisonicotinamide], the IC50 is less than 1 µM.
To `Cc1cc(C(C)NC(=O)c2ccnc(NC(=O)C(C)C)c2)cc(Cl)c1OCC(F)F` (single isomer, unassigned) [Example 1210, N-(1-(3-chloro-4-(2,2-difluoroethoxy)-5-methylphenyl)ethyl)-2-isobutyramidoisonicotinamide] belongs less than 1 µM; to `Cc1cc(C(=O)NC(C)c2cc(C)c(OCC(F)F)c(Cl)c2)cc(NC(=O)C(C)C)n1` (single isomer, unassigned) [Example 1212, N-(1-(3-chloro-4-(2,2-difluoroethoxy)-5-methylphenyl)ethyl)-2-isobutyramido-6-methylisonicotinamide], less than 1 µM; to `CC(=O)Nc1cc(C(=O)NCc2cccc(OCC(F)(F)F)n2)ccn1` [Example 22, 2-acetamido-N-((6-(2,2,2-trifluoroethoxy)pyridin-2-yl)methyl)isonicotinamide], less than 1 µM.
As for `CC(=O)Nc1cc(C(=O)NCc2cccc(OC(F)(F)F)c2)ccn1` [Example 24, 2-acetamido-N-(3-(trifluoromethoxy)benzyl)isonicotinamide], the IC50 was less than 1 µM.
To `O=C(NCc1cccc(OCC(F)(F)F)n1)c1cccc2[nH]c(=O)[nH]c12` [Example 57, 2-oxo-N-((6-(2,2,2-trifluoroethoxy)pyridin-2-yl)methyl)-2,3-dihydro-1H-benzo[d]imidazole-4-carboxamide] belongs less than 1 µM.
To `CCC(=O)Nc1cc(C(=O)NCc2ccnc(OCC(F)(F)F)c2)cc(C)n1` [Example 137, 2-methyl-6-propionamido-N-((2-(2,2,2-trifluoroethoxy)pyridin-4-yl)methyl)isonicotinamide] belongs less than 1 µM.
`CCC(=O)Nc1cc(C(=O)NCc2ccc(OCC(F)(F)F)nc2C)cc(C)n1` [Example 168, 2-methyl-N-((2-methyl-6-(2,2,2-trifluoroethoxy)pyridin-3-yl)methyl)-6-propionamidoisonicotinamide]: the IC50 was less than 1 µM.
For the compound `Cc1cc(OCC(F)(F)F)ncc1CNC(=O)c1ccnc(NC(=O)C(C)C)c1` [Example 178, 2-isobutyramido-N-((4-methyl-6-(2,2,2-trifluoroethoxy)pyridin-3-yl)methyl)isonicotinamide], the IC50 was less than 1 µM.
On to `CCC(=O)Nc1cc(C(=O)NCc2cnc(OCC(F)(F)F)cc2C)cc(C)n1` [Example 179, 2-methyl-N-((4-methyl-6-(2,2,2-trifluoroethoxy)pyridin-3-yl)methyl)-6-propionamidoisonicotinamide], for which the IC50 is less than 1 µM.
The same measure for `COc1nc(OCC(F)(F)F)ccc1CNC(=O)c1cc(C)nc(NC(=O)C2CC2)n1` [Example 181, 2-(cyclopropanecarboxamido)-N-((2-methoxy-6-(2,2,2-trifluoroethoxy)pyridin-3-yl)methyl)-6-methylpyrimidine-4-carboxamide]: less than 1 µM.
Take `CC(=O)Nc1cc(C(=O)NCc2ccc(OCC(F)(F)F)nc2)cc(C)n1` [Example 237, 2-acetamido-6-methyl-N-((6-(2,2,2-trifluoroethoxy)pyridin-3-yl)methyl)isonicotinamide]: the IC50 was less than 1 µM.

Source of the values: US9302991B2, “Arylamide derivatives as TTX-S blockers” (RaQualia Pharma Inc., priority 2010, dated 2016).
